Experimental data: paper PMC9714824, “Hexapeptides from mammalian inhibitory hormone hunt activate and inactivate nematode reproduction” (PLOS ONE, 2022)

Columns and labels:
mouse renal cell = settings: in words; cited from earlier work
human dental pulp cells = settings: 5μM (single starting dose) in the cell medium; over 7 days; cited from earlier work
Excerpt: EPL001 is a found sequence, as described in the Introduction. As a 14mer synthetic peptide it has been represented elsewhere as a minimized ball and stick model in silico [9]. […] An anti-EPL001 antibody administered alone potentiated compensatory renal grow ...

PC3 cells = experiment: MTS colorimetric viable cell assay, PC3; format: cell-based, human; settings: PC3; 30 μM; 27h; MTS, 492 nm; triplicate
Experimental: (§1) Assays involving a range of peptides from 14mer down to 6mers assessed total viable PC3 or PNT2 cells using a 96-well plate MTS colorimetric assay (CellTiter 96 Aqueous One Solution Cell Proliferation Assay, Promega, Southampton, UK), with absorbance measured at 492 nm. Cells were seeded at 8,000 per well and grown for 27h. Peptides were administered at the outset to a final concentration of 30 μM (in 2 μl) to samples in triplicate. (A higher dosage was used than in the 14mer peptides study to shorten the timecourse of response.) Controls received buffer. Data are OD mean +/ − SEM, with statistical analysis by two tailed t-test. A time course study of the 14mers on PC3s, using the same technique, involved measurements at 24h and 48h.
(§2) Fig 5 Effects of a range of peptides on human prostate cancer cell growth in vitro. Assays involved a range of peptides from 14mers down to 6mers (Table 1), with viable cells assessed using a 96-well plate MTS colorimetric assay. Absorbance measured at 492 nm. Cells were seeded at 8,000 per well and grown for 27h. Peptides were administered at the outset to a final concentration of 30 μM (in 2 μl) to samples in triplicate. Controls received buffer. Data are OD mean +/- SEM, with statistical analysis by two tailed t-test. * p<0.05; **p<0.025.

PNT2 cells = experiment: MTS colorimetric viable cell assay, PNT2; format: cell-based, human; settings: 30 μM, 27h, 492 nm, triplicate
Experimental: as §1, §2

LNCaP cells = experiment: MTS viable cell assay, LNCaP (Epistem); format: cell-based, human; settings: over 72h, single dose level
Experimental: (§3) Further assays on human prostate cancer cells were conducted at a contract research organisation (Epistem, Manchester, UK). LNCaP or DU145 cells seeded at 3,000 cells/well across a 96-well plate were cultured in RPMI (phenol red free), 10% FCS, 1% sodium pyruvate, Pen/strep and L-glutamine for 24h before exposure to peptides, at a single dose level in the case of LNCaPs or multiple dose levels in the case of DU145s. (For dose levels see Results.) Controls received vehicle (1% PBS). For the DU145s peptide administration was repeated after 24h. 72h after the first administration (DU145s) or only administration (LNCaP) total viable cell numbers were measured colorimetrically (MTS) using a CellTiter 96 AQueous One Solution Cell Proliferation Assay (Promega, Southampton, UK), following manufacturer’s instructions. Briefly, the media on the plates was replaced with the CellTiter reagent diluted 1:5 in DMEM. The plates were returned to the incubator for 3 hours before reading absorbance at 492 nm on a FLUORstar OPTIMA (BMG Labtech). CellTiter data are the absorbance minus background values (CellTiter plus DMEM), expressed as (OD mean +/− SEM). Statistical analysis was by ANOVA, Dunnett’s multiple comparisons test.

DU145 cells = experiment: MTS viable cell assay, DU145 (Epistem); format: cell-based, human; settings: DU145, 72h
Experimental: as §3

[1] = test system: human marrow derived mesenchymal stem cells (hMSCs); experiment: Peptide immobilisation studies, hMSC proliferation (CyQuant) and FACS; format: cell-based; settings: alanine substitution study; for Mean cell number: N-terminally tethered, seeding 5,000 cells per well, CyQuant, mean +/− SEM, n = 3
Excerpt: Could the antiproliferative activity in vitro of EPL001 in solution be more predictably evoked and investigated more readily if the peptide is instead tethered to the cell culture’s substratum? […] In the first study EPL001 was immobilised by either its N terminus or C terminus and human stem cells exposed accordingly. This followed a confirmation of dissolved EPL001’s antiproliferative activity in the same laboratory (JAH). In the second study, aa sections of EPL001 were substituted with alanine strings prior to tethering, to define a functional biological motif. Into the base of each well of a 24-well plate was inserted a glass coverslip (13mm diameter, borosilicate glass, SLS, Nottingham, UK), upon the upper surface of which had been immobilised an individual peptide using a bioconjugate technique. During preparation of the coverslips, the surfaces were modified with carboxyl (−COOH) or amine (−NH2) groups separately using a published method. The carboxyl on the coverslips or at the end of the peptide sequence were reacted with NHS in the presence of EDC, resulting in a semi-stable NHS ester, which could then be reacted with primary amines (−NH2) on the coverslips or at the end of the peptide sequences to form amide crosslinks. For the carboxyl modified coverslips, the final peptide grafted on to the surface via its NH2 terminus was in the form Glass-CO-NH-Peptide. For the amine modified coverslips, the final peptide grafted on to the surface via its COOH terminus was in the form Glass-NH-CO-Peptide. The concentration of the peptides across the glass was approximately […]. Uncoated glass was used as the reference control. Treatments were in triplicate (i.e. n = 3). The cells used were human marrow derived mesenchymal stem cells (hMSCs, Lonza, Slough, UK, cat No PT-2507). In the EPL001-terminus study they were seeded at 10,000 cells per well; in the alanine substitution study the density was 5,000 cells per well. The cells were maintained in DMEM with 10% FSC. EPL001 and three alanine-substituted versions of it were deployed separately: MKPLTGKVKEFNNI (EPL001), AAAAAGKVKEFNNI (EPL590), MKPLTAAAAEFNNI (EPL545) and MKPLTGKVKEAAAA (EPL104). The peptides in the alanine substitution study were N-terminally tethered to the substrate. Cell numbers were measured by CyQuant® (Invitrogen, Paisley, UK). […] Statistical analysis was by ANOVA using SPSS software.
Four 14-aa peptides were synthesised: MKPLTGKVKEFNNI (EPL001), AAAAAGKVKEFNNI (EPL590), MKPLTAAAAEFNNI (EPL545) and MKPLTGKVKEAAAA (EPL104). The peptides were generated from l-isomer amino acids by solid phase peptide synthesis (Model 9050, Milligen). All peptides were N-terminally tethered to the substrate by a bioconjugate technique. MSCs were derived from human bone marrow and maintained in DMEM with 10% FSC. Cells were seeded on peptide treated surfaces including a glass control in a 24-well plate with cell density 5 x 10^3. The growth inhibitory activity was examined via cell proliferation assays and cell cycle analysis, using PI and Ki-67 staining. The cell phenotype and viability (7-AAD) were analysed by flow cytometry.

rat bone marrow cells = experiment: Bone marrow cell assay, time-lapse cell counts over 24h; format: cell-based; settings: EPL001, EPL030 at 6μM, EPL120 at 5μM final concentration, in words (Fig 6)
Experimental: The method has been described previously at length. Bone marrow cells, consisting of various cell types including mesenchymal stem cells and fibroblasts, were cultured from adult male rats (Rattus norvegicus, SD strain). These cells were passaged from a growing primary stock in a T75 tissue culture flask (Sarstedt) into a 48 well tissue culture plate (IWAKI), with a cell density of 1 x 10^5/ml. The cell culture media, henceforth referred to as ‘supplemented a-MEMS,’ comprised α-MEMS media supplemented with 10% FCS and 1% penicillin/streptomycin (all Life Technologies, Carlsbad, CA, US). On the day of peptide addition to the cells, the supplemented α-MEMS was gently removed and fresh supplemented α-MEMS added, with 10% test material by volume to achieve micromolar concentrations, untreated controls receiving just fresh supplemented α-MEMS. (For dose levels see legends in respective result figures) All samples were filter sterilised using a Millex-GV […] syringe filter unit (Merck, Kenilworth, NJ, USA). The cells were imaged for 24 h using an incubated Zeiss Axiovert 135M microscope with a Prior Proscan II motorised stage, at 37 °C with a 5% CO2 in air feed. Each well of the 48-well tissue culture plate was then imaged for 24h every 5 min using Metamorph software (MDS Analytical Technologies, Wokingham, UK), with each well having four fields of view. The viability and cell numbers were reviewed by analysing the images captured over the 24h period and cell counts were taken at selected time points using the Metamorph software.
Fig 6 Bone marrow cells in culture exposed to long peptides. Cells were counted over 24h after exposure to the 14mer peptide EPL001 or its scrambled-sequence control EPL030 at 6μM final concentration or to the 20mer EPL120 at 5μM final concentration, compared to peptide-untreated controls.
Fig 7 Bone marrow cells in culture exposed to hexapeptides. Cells were counted over 24h after exposure to either EPL016 (= MKPLTG, the ‘Front 6’ of the 14mer EPL001) or EPL036 (= IEPVFT, the ‘Back 6’ of EPL030, the scrambled-sequence control of EPL001) at 1μM final concentration, compared to peptide-untreated controls.

[2] = test system: MCF 7 human breast cancer cells; settings: in words; EPL120 over 72h, dose range 0.04 nM– 4 μM; cited from earlier work

| Substance | Difference in percentage terms between control and test OD means (PC3 cells) | Difference in percentage terms between control and test OD means (PNT2 cells) | Reduction in test mean OD versus the vehicle control mean (LNCaP cells) | Test mean OD vs control mean (DU145 cells; 0.015 μM) | Test mean OD vs control mean (DU145 cells; 0.15 μM) | Test mean OD vs control mean (DU145 cells; 1.5 μM) | Test mean OD vs control mean (DU145 cells; 15 μM) | Test mean OD vs control mean (DU145 cells; 150 μM (highest concentration)) | other results |
| --- | --- | --- | --- | --- | --- | --- | --- | --- | --- |
| KGNEVMKLFPTINE [EPL010, Scrambled control (Haylor et al, 2009)] |  |  |  |  |  |  |  |  | Activity in a mouse renal cell assay in vitro (mouse renal cell): inactive |
| KVKEFNNI [EPL018, KVKEFNNI, EPL001 Back 8] |  |  |  |  |  |  |  |  | Reduction in cell numbers (human dental pulp cells): ~ 17% |
| MKPVFN [EPL601] | −28.0% | −33.2% | −16.0% | +6.9% | −4.3% | −10.4% | −11.4% | −14.3% |  |
| MKPNFN [EPL600] | −27.3% | −39.7% | −35.1% | +8.6% | −0.1% | −8.4% | −7.1% | −16.9% |  |
| AAAAAGKVKEFNNI [EPL590, Substituted EPL001; alanines 1–5] |  |  | −21.4% |  |  |  |  |  | Cell number vs Glass ([1]; Day 7): 16%; Cell number vs Glass ([1]; Day 14): −23%; Mean cell number ([1]; Day 7): 11,805 +/−4,028; Mean cell number ([1]; Day 14): 20,347 +/−2,264 |
| EPL120: EPL001 Edman sequence tentatively extended 6 further reads, to make a 20mer (MKPLTGKVKEFNNIKGFGVI) |  |  |  |  |  |  |  |  | Effect on bone marrow cells in culture (rat bone marrow cells): pro-apoptotic; Inhibition of IGF-1 stimulated growth in MCF-7 cell numbers [2]: dose-dependent inhibition |
